Measurements published in patent US20240327351A1, “AMIDE AND ETHER SUBSTITUTED N-(1H-INDOL-7-YL)BENZENESULFONAMIDES AND USES THEREOF” (TRIANA BIOMEDICINES, INC., priority 2021, published 2024).

Experiments:
[1] = biological target: DCAF15 (Homo sapiens, UniProt Q66K64); assay: HTRF competition assay, binary interaction between compounds and DCAF15; assay type: binding; details: competition with Alexa Fluor 647 tracer, His-tagged DCAF15 complex
Experimental: Example 7: Measurement of Binary Interaction Between Compounds And DCAF15 Using Homogeneous Time Resolved Fluorescence (HTRF)
DCAF15 interactions with test compounds were monitored using HTRF competition assays (Cisbio, Bedford, MA). Test compounds were first collected in a 384-well microplate (cat. #781280, Grenier Bio-One, Monroe, NC) as 10 mM stocks in 100% dimethyl sulfoxide (DMSO). A second stock plate (cat. #781280, Grenier Bio-One, Monroe, NC) was prepared through 3-fold serial dilution in DMSO of the afore-mentioned stocks using a Mosquito HTS dispenser (mosquito@ HTS, SPT Labtech, Boston, MA). 0.2 ul of these diluted stocks were then dispensed into a 384-well Optiplate (cat. #6007290, Perkin Elmer, Waltham, MA) in duplicate wells, to assemble the assay plate. The tracer molecule containing an Alexa Fluor 647 probe was prepared in 25 mM HEPES pH 7.5, 100 mM NaCl, 0.1 mg/ml BSA, 0.005% Tween 20, 0.5 mM TCEP (dilution buffer) to 612 nM (2.04×). Separately, His-tagged DCAF15 complex was prepared at 32 nM (4×) in the dilution buffer, and mAb Anti-6His-Eu cryptate Gold (cat. #61H12KLA, Cisbio, Bedford, MA) at 4× dilution in the detection buffer (cat. #61 DB9RDF, Cisbio, Bedford, MA). These two solutions were mixed and incubated for 15 min at room temperature. 9.8 ul of the tracer solution and 10 ul of the DCAF15/mAb Anti-6His-Eu cryptate Gold mixture were added sequentially to each well in the assay plate. Reaction mixtures with no DCAF15 added were included as positive controls. The final mixture was incubated for an hour at room temperature and spun down briefly before data collection at 615 nm and 666 nm using En Vision 2104 Multilabel Plate Reader (Perkin Elmer, Bedford, MA). Binding was estimated based on ratiometric analysis and titration curves were generated in GraphPad Prism (7.00, GraphPad, La Jolla, CA).

[2] = biological target: DCAF15/RBM39 (Homo sapiens, UniProt Q14498+Q66K64); assay: AlphaLISA compound-induced DCAF15-RBM39 ternary complex formation; assay type: binding; details: His-tagged DCAF15 complex and biotin-carrying RBM39
Experimental: Example 6: Quantitative Evaluation of Compound-Induced Ternary Complex Formation Using Amplified Luminescent Proximity Homogeneous Assay
Compound-induced DCAF15-RBM39 ternary complex formation was monitored using AlphaLISA® assays (Perkin Elmer, Waltham, MA). Test compounds were first collected in a 384-well microplate (cat. #781280, Grenier Bio-One, Monroe, NC) as 2 mM stocks in 100% dimethyl sulfoxide (DMSO). These stocks were then serially diluted in DMSO by 3-fold into a new plate (cat. #781280, Grenier Bio-One, Monroe, NC) using a Mosquito HTS dispenser (mosquito@ HTS, SPT Labtech, Boston, MA). 0.2 ul of these diluted stocks were then dispensed into a 384-well Optiplate (cat. #6007290, Perkin Elmer, Waltham, MA) in duplicate wells, to assemble the final assay plate consisting of duplicated dose ranges. Separately, a protein mixture consisting of His-tagged DCAF15 complex and biotin-carrying RBM39, each at 408 nM (2.04×), was prepared in 50 mM HEPES, pH 7.5, 100 mM NaCl, 2 mM MgCl2, 0.1% BSA, 2 mM TCEP, 0.05% Tween-20 (dilution buffer). 9.8 ul of this protein mixture was then mixed with the compounds in the assay plate and incubated for one hour at room temperature. Reaction mixtures with no compounds added were included as negative controls, while a His-tagged and biotinylated GST protein was included to track general assay performance. Nickel Chelate AlphaLISA Acceptor beads (cat. #AL108M, Perkin Elmer, MA) and AlphaScreen Streptavidin Donor beads (cat. #6760002, Perkin Elmer, Waltham, MA) were prepared separately in the dilution buffer as 4× stocks (80 ug/ml). The beads were then added to the assay plate sequentially with incubation at room temperature for 1-2 hours after each addition. Signals were recorded using EnVision 2104 Multilabel Plate Reader (Perkin Elmer, Waltham, MA) and titration curves were generated in GraphPad Prism (7.00, GraphPad, La Jolla, CA).

SMILES | IC50 [1] | EC50 [2]
N[C@H]1CC[C@H](Oc2ccc(S(=O)(=O)Nc3ccc(Cl)c4c(Cl)c[nH]c34)cc2)CC1 [Compound 5] | 1 to 10 µM | < 1 µM
O=S(=O)(Nc1ccc(Cl)c2c(Cl)c[nH]c12)c1ccc(Oc2ccccc2)c(Cl)c1 [Compound 34] | > 100 µM | 1 to 10 µM
O=S(=O)(Nc1ccc(Cl)c2c(Cl)c[nH]c12)c1ccc(O[C@H]2CC[C@H](N3CCOCC3)CC2)cc1 [Compound 17] | 10 to 100 µM | < 1 µM
CCOCCOc1ccc(S(=O)(=O)Nc2ccc(Cl)c3c(Cl)c[nH]c23)cc1C(C)C [Compound 232] | > 100 µM | 1 to 10 µM
O=c1oc2ccccc2n1CCCOc1ccc(S(=O)(=O)Nc2ccc(Cl)c3c(Cl)c[nH]c23)cc1 [Compound 113] | > 100 µM | 1 to 10 µM
Cc1ccnc([C@@H](NC(=O)c2ccc(S(=O)(=O)Nc3ccc(Cl)c4c(Cl)c[nH]c34)c(F)c2)C2CC2)c1 [Compound 180] | 1 to 10 µM | 1 to 10 µM
O=S(=O)(Nc1ccc(Cl)c2c(Cl)c[nH]c12)c1cccc(OCCCc2ccc3c(c2)OCO3)c1 [Compound 111] | > 100 µM | > 100 µM
CN(C)C(=O)C[C@H](NC(=O)c1cccc(S(=O)(=O)Nc2ccc(Cl)c3c(Cl)c[nH]c23)c1F)c1ccccc1 [Compound 196] | 1 to 10 µM | 1 to 10 µM
CN1CC2(CC(Oc3ccc(S(=O)(=O)Nc4ccc(Cl)c5c(Cl)c[nH]c45)cc3)C2)C1 [Compound 24, N-(3,4-dichloro-1H-indol-7-yl)-4-((2-methyl-2-azaspiro[3.3]heptan-6-yl)oxy)benzenesulfonamide] | 1 to 10 µM | < 1 µM
O=C(NCCOCC1CC1)c1ccc(S(=O)(=O)Nc2ccc(Cl)c3c(Cl)c[nH]c23)c(F)c1 [Compound 187] | 1 to 10 µM | < 1 µM
O=S(=O)(Nc1ccc(Cl)c2c(Cl)c[nH]c12)c1ccc(OCC2COC2)cc1 [Compound 40] | > 100 µM | < 1 µM
O=C(NC[C@H]1Cc2ccccc21)c1cccc(S(=O)(=O)Nc2ccc(Cl)c3c(Cl)c[nH]c23)c1F [Compound 164] | 1 to 10 µM | 1 to 10 µM
CC(C)c1cc(S(=O)(=O)Nc2ccc(Cl)c3c(Cl)c[nH]c23)ccc1OCc1ccccc1 [Compound 233] | 10 to 100 µM | 10 to 100 µM
CNCCCCCCOc1ccc(S(=O)(=O)Nc2ccc(Cl)c3c(Cl)c[nH]c23)cc1 [Compound 148] | 1 to 10 µM | < 1 µM
CC1(Oc2ccc(S(=O)(=O)Nc3ccc(Cl)c4c(Cl)c[nH]c34)cc2)CCNCC1 [Compound 22, N-(3,4-dichloro-1H-indol-7-yl)-4-((4-methylpiperidin-4-yl)oxy)benzenesulfonamide] | 1 to 10 µM | < 1 µM
Cc1ccccc1Oc1ccccc1CNC(=O)c1cccc(S(=O)(=O)Nc2ccc(Cl)c3c(Cl)c[nH]c23)c1F [Compound 172] | 1 to 10 µM | 1 to 10 µM
O=S(=O)(Nc1ccc(Cl)c2c(Cl)c[nH]c12)c1ccc(OCc2cccc(OC(F)F)c2)cc1 [Compound 54] | > 100 µM | 1 to 10 µM
CN1CC(CCNC(=O)c2ccc(S(=O)(=O)Nc3ccc(Cl)c4c(Cl)c[nH]c34)c(F)c2)C1 [Compound 193] | 1 to 10 µM | < 1 µM
O=C(NCCCc1ccc(Cl)cc1)c1cccc(S(=O)(=O)Nc2ccc(Cl)c3c(Cl)c[nH]c23)c1F [Compound 208] | > 100 µM | > 100 µM
O=S(=O)(Nc1ccc(Cl)c2c(Cl)c[nH]c12)c1cccc(OC[C@@H]2CCCNC2)c1 [Compound 45] | 10 to 100 µM | < 1 µM

SMILES | IC50 [1] | EC50 [2]
N#Cc1ccc(Oc2ccc(S(=O)(=O)Nc3ccc(Cl)c4c(Cl)c[nH]c34)cc2)cc1 [Compound 37] | > 100 µM | 1 to 10 µM
CN(C)C(=O)c1ccc(CCNC(=O)c2ccc(S(=O)(=O)Nc3ccc(Cl)c4c(Cl)c[nH]c34)c(F)c2)cc1 [Compound 195] | 1 to 10 µM | 1 to 10 µM
Cn1nnc2cc(COc3ccc(S(=O)(=O)Nc4ccc(Cl)c5c(Cl)c[nH]c45)cc3)ccc21 [Compound 68] | > 100 µM | < 1 µM
CCc1cnc(N2CCC(CCCOc3cccc(S(=O)(=O)Nc4ccc(Cl)c5c(Cl)c[nH]c45)c3)CC2)nc1 [Compound 100] | > 100 µM | > 100 µM
CCOc1cc(N2CCC[C@H](COc3ccc(S(=O)(=O)Nc4ccc(Cl)c5c(Cl)c[nH]c45)cc3)C2)ncn1 [Compound 44] | > 100 µM | 1 to 10 µM
Cc1ccnc([C@@H](NC(=O)c2cccc(S(=O)(=O)Nc3ccc(Cl)c4c(Cl)c[nH]c34)c2F)C2CC2)c1 [Compound 185] | 1 to 10 µM | 1 to 10 µM
CN(C)C(=O)c1ccc(CCNC(=O)c2cccc(S(=O)(=O)Nc3ccc(Cl)c4c(Cl)c[nH]c34)c2F)cc1 [Compound 194] | 1 to 10 µM | 1 to 10 µM
O=C1CC[C@H](NC(=O)c2cccc(S(=O)(=O)Nc3ccc(Cl)c4c(Cl)c[nH]c34)c2F)CN1 [Compound 156] | 1 to 10 µM | < 1 µM
O=C(NCCCOCc1ccccc1)c1cccc(S(=O)(=O)Nc2ccc(Cl)c3c(Cl)c[nH]c23)c1F [Compound 204] | 1 to 10 µM | 1 to 10 µM
Cc1nc(-c2ccc(COc3cccc(S(=O)(=O)Nc4ccc(Cl)c5c(Cl)c[nH]c45)c3)cc2)no1 [Compound 63] | > 100 µM | 1 to 10 µM
CC(C)C(=O)Nc1cccc(CNC(=O)c2cccc(S(=O)(=O)Nc3ccc(Cl)c4c(Cl)c[nH]c34)c2F)c1 [Compound 168] | 1 to 10 µM | 1 to 10 µM
CCOc1cc(N2CCC[C@H](COc3cccc(S(=O)(=O)Nc4ccc(Cl)c5c(Cl)c[nH]c45)c3)C2)ncn1 [Compound 43] | > 100 µM | 1 to 10 µM
CC(C)(C)OC(=O)NC1(CNC(=O)c2ccc(S(=O)(=O)Nc3ccc(Cl)c4c(Cl)c[nH]c34)c(F)c2)CC1 [Compound 163] | 1 to 10 µM | 1 to 10 µM
O=S(=O)(Nc1ccc(Cl)c2c(Cl)c[nH]c12)c1ccc(OCc2ccc3c(c2)CNC3)cc1 [Compound 66] | 1 to 10 µM | < 1 µM
CC(C)C[C@H](NC(=O)c1ccc(S(=O)(=O)Nc2ccc(Cl)c3c(Cl)c[nH]c23)c(F)c1)c1nc2ccccc2[nH]1 [Compound 212] | 1 to 10 µM | 1 to 10 µM
Cc1cnc(CNC(=O)c2cccc(S(=O)(=O)Nc3ccc(Cl)c4c(Cl)c[nH]c34)c2F)cn1 [Compound 183] | 1 to 10 µM | < 1 µM
CC1(Oc2ccc(S(=O)(=O)Nc3ccc(Cl)c4c(Cl)c[nH]c34)cc2)CCN(CCO)CC1 [Compound 23, N-(3,4-dichloro-1H-indol-7-yl)-4-((1-(2-hydroxyethyl)-4-methylpiperidin-4-yl)oxy)benzenesulfonamide] | 1 to 10 µM | < 1 µM
O=C(c1cccc(S(=O)(=O)Nc2ccc(Cl)c3c(Cl)c[nH]c23)c1F)N1CC[C@H](n2ccnn2)C1 [Compound 216] | < 1 µM | < 1 µM
COc1cccc(Oc2ccc(CNC(=O)c3ccc(S(=O)(=O)Nc4ccc(Cl)c5c(Cl)c[nH]c45)c(F)c3)cn2)c1 [Compound 182] | > 100 µM | > 100 µM
Cc1nc2c(n1C)CCN(C(=O)c1cccc(S(=O)(=O)Nc3ccc(Cl)c4c(Cl)c[nH]c34)c1F)C2 [Compound 228] | < 1 µM | < 1 µM
